{"source": "patent EP0879035B1", "about": "“BISMUTH-CONTAINING COMPOSITIONS IN TOPICAL DOSAGE FORMS” (Josman Laboratories, Inc., priority 1995, dated 1997)", "origin": "cited, not measured here", "key": {"H. Pylori": {"tested_on": "H. Pylori", "details": "against H. Pylori"}, "[1]": {"details": "rats treated for three months; 160, 320, and 640 mg/kg body weight"}, "[2]": {"details": "dogs treated for six months; 160, 320, and 640 mg/kg body weight"}, "[3]": {"details": "in vivo"}}, "note": "Read-outs that look alike come from different tables or passages of the source.", "data": [{"substance": "1,2,3-PROPANETRICARBONIC ACID, 2-HYDROXY, BISMUTH(3T)POTASSIUM [CBS]", "values": [{"measurement": "minimum inhibitory concentration (MIC), range", "setting": "H. Pylori", "value": "4 to 32", "unit": "µg/mL"}, {"measurement": "toxicity on chronic daily administration", "setting": "[1]", "value": "No toxicity"}, {"measurement": "toxicity on chronic daily administration", "setting": "[2]", "value": "No toxicity"}, {"measurement": "steady-state blood levels unlikely to cause any neurotoxicity", "setting": "[3]", "value": "50-100"}, {"measurement": "systemic bioavailability of bismuth", "setting": "[3]; po", "value": "0.16-0.28 % of the administered dose"}]}]}
